The values below come from ChEMBL document CHEMBL1151045, “Synthesis and evaluation of the anticonvulsant activity of a series of 2-amino-1-phenyl-1-propanols derived from the metabolites of the antidepressant bupropion” (1997).

Each structure is given as a SMILES string. Several values for one entry are separate records, joined by “and”; a condition that tells them apart may be missing. Equal entries are not always repeated. Activity calls are given as the source filed them. The rule behind the calls is not given here.

The subject of experiment [1] is Mus musculus. Put plainly: Anticonvulsant activity measured in Maximal electroshock assay (MES), intraperitoneal administration. The experiment is classed as functional.
For experiment [2], the system named is Mus musculus. Briefly: Anticonvulsant activity of compound was tested in mice after intraperitoneal administration in Maximal electroshock assay (MES); Inactive at 60 mg/kg dose. More on the design: dose 60 mg/kg. The experiment is classed as functional, organism-based.
Experiment [3] deals with Mus musculus. Briefly: Anticonvulsant activity of compound was tested in mice after intraperitoneal administration in Maximal electroshock assay (MES); Inactive at 13 mg/kg dose. The experiment is classed as functional, organism-based. More on the design: dose 13 mg/kg.
Experiment [4] relates to Mus musculus. Briefly: Anticonvulsant activity of compound was tested in mice after intraperitoneal administration in Maximal electroshock assay (MES); Inactive at 40 mg/kg dose. Details: dose 40 mg/kg. The experiment is classed as functional, organism-based.
For experiment [5], the system named is Mus musculus. Briefly: Anticonvulsant activity of compound was tested in mice after intraperitoneal administration in Maximal electroshock assay (MES); Inactive at 30 mg/kg dose. The experiment is classed as functional, organism-based. Details: dose 30 mg/kg.
Experiment [6] concerns Mus musculus. Briefly: Anticonvulsant activity of compound was tested in mice after intraperitoneal administration in Maximal electroshock assay (MES); Inactive at 70 mg/kg dose. Type of experiment: functional, organism-based. Details: dose 70 mg/kg.
The mark [7] stands for this setting: Mus musculus, ip, read-out: ED50.

In the experiment with Mus musculus [1], `C[C@H](NC(C)(C)C)[C@H](O)c1cccc(Cl)c1` [ERYTHRO-HYDROBUPROPION] gave an ED50 of 28 mg/kg. As for `C[C@@H](NC(C)(C)C)[C@H](O)c1ccccc1`, the ED50 in the experiment on Mus musculus [1] (setting [7]) amounted to 14 mg/kg.

Consider `C[C@H](N)[C@H](O)c1cccc(Cl)c1`, for which the ED50 entry in the experiment with Mus musculus [2] is “inactive”.

With `CCCCN[C@H](C)[C@H](O)c1cccc(C(F)(F)F)c1`, in the experiment with Mus musculus [3], the ED50 result is “inactive”. As to `C[C@@H](NC(C)(C)C)[C@H](O)c1cccc([N+](=O)[O-])c1`, in the experiment on Mus musculus [4], the ED50 result was “inactive”. Consider `C[C@@H](NC(C)(C)C)[C@H](O)c1ccc(Cl)c(Cl)c1`, for which the ED50 in the experiment with Mus musculus [1] (setting [7]) was determined as 13 mg/kg. Compound `CC(NC(C)(C)C)C(O)c1cccc(Cl)c1` (racemic; form 2) [ERYTHRO-HYDROBUPROPION] gave an ED50 in the experiment on Mus musculus [1] of 26 mg/kg. Regarding `CC(NC(C)(C)C)C(O)c1cccc(C(F)(F)F)c1` (racemic; form 2), in the experiment with Mus musculus [1] (setting [7]), the ED50 is 25 mg/kg.

For the compound `CC[C@@H](NC(C)(C)C)[C@H](O)c1cccc(C(F)(F)F)c1`, the ED50 with Mus musculus [1] (setting [7]) is 31 mg/kg.

Take `CCC[C@H](NC(C)(C)C)[C@H](O)c1cccc(C(F)(F)F)c1`: the ED50 in the experiment on Mus musculus [1] (setting [7]) is 31 mg/kg. Still for that read-out and setting: the figure for `C[C@@H](NC1CCCCC1)[C@H](O)c1cccc(Cl)c1` is 13 mg/kg.

Compound `C[C@@H](NC(C)(C)C)[C@H](O)c1cccc(Cl)c1` [ERYTHRO-HYDROBUPROPION] showed an ED50 in the experiment with Mus musculus [1] of 11 mg/kg. For the compound `CC(C)(C)NCC(O)c1cccc(Cl)c1` (centres undefined), in the experiment on Mus musculus [1] (setting [7]), the ED50 was found to be 28 mg/kg. The same measure, in the same setting: the value for `C[C@H](NC(C)(C)C)[C@H](O)c1cccc(Br)c1` was 16 mg/kg. Same read-out and setting: the value for `C[C@@H](NC(C)(C)C)[C@H](O)c1cccc(Br)c1` was 11 mg/kg.

For the compound `C[C@H](NC(C)(C)C)[C@H](O)c1ccc(Cl)cc1`, in the experiment on Mus musculus [1] (setting [7]), the ED50 stood at 25 mg/kg. As to `Cc1ccc([C@@H](O)[C@H](C)NC(C)(C)C)cc1`, the ED50 result in the experiment with Mus musculus [4] was “inactive”. On to `CCC(C)N[C@H](C)[C@H](O)c1cccc(C(F)(F)F)c1` (some centres undefined), for which, in the experiment with Mus musculus [1] (setting [7]), the median effective dose (ED50) was determined as 31 mg/kg. Consider `C[C@@H](NC(C)(C)C)[C@H](O)c1cccc(C(F)(F)F)c1`, for which the median effective dose (ED50) in the experiment with Mus musculus [1] was 17 mg/kg and 22 mg/kg. As to `CCC[C@H](NC(C)(C)C)[C@H](O)c1cccc(Cl)c1`, the ED50 in the experiment with Mus musculus [1] (setting [7]) is 31 mg/kg. On to `CCC(C)(C)N[C@H](C)[C@H](O)c1cccc(Cl)c1`, for which the ED50 with Mus musculus [1] (setting [7]) stood at 11 mg/kg. `CC(NC(C)(C)C)C(O)c1cccc(Cl)c1` (racemic; form 1) [ERYTHRO-HYDROBUPROPION] yielded an ED50 in the experiment with Mus musculus [1] of 14 mg/kg. As to `Cc1ccc([C@@H](O)[C@@H](C)NC(C)(C)C)cc1`, the ED50 in the experiment on Mus musculus [1] (setting [7]) was found to be 33 mg/kg. The same measure, in the same setting: the value for `CCC(C)(C)N[C@@H](C)[C@H](O)c1cccc(Cl)c1` was 23 mg/kg. For the compound `C[C@H](NC(C)(C)CO)[C@H](O)c1cccc(Cl)c1`, the ED50 result in the experiment with Mus musculus [5] is “inactive”. Consider `COc1ccc([C@@H](O)[C@H](C)NC(C)(C)C)cc1`, for which the ED50 result in the experiment with Mus musculus [6] was “inactive”. As to `CCC(C)(C)N[C@H](C)[C@H](O)c1cccc(C(F)(F)F)c1`, the ED50 in the experiment on Mus musculus [1] (setting [7]) was determined as 18 mg/kg. Regarding `CCC(C)(C)N[C@@H](C)[C@H](O)c1cccc(C(F)(F)F)c1`, in the experiment on Mus musculus [1] (setting [7]), the ED50 is 28 mg/kg. `CC[C@H](NC(C)(C)C)[C@H](O)c1cccc(Cl)c1`: the ED50 in the experiment on Mus musculus [1] (setting [7]) was 26 mg/kg. The same measure, in the same setting: the value for `CC(C)N[C@H](C)[C@H](O)c1cccc(C(F)(F)F)c1` was 40 mg/kg.

Consider `C[C@H](NC(C)(C)C)[C@H](O)c1cccc([N+](=O)[O-])c1`, for which, in the experiment with Mus musculus [4], the ED50 result is “inactive”. As for `CC[C@@H](NC(C)(C)C)[C@H](O)c1cccc(Cl)c1`, in the experiment on Mus musculus [1] (setting [7]), the median effective dose (ED50) is 15 mg/kg.

`C[C@@H](NC(C)(C)C)[C@H](O)c1ccc(Cl)cc1`: the ED50 with Mus musculus [1] (setting [7]) came to 29 mg/kg. In the experiment with Mus musculus [1], `CC(NC(C)(C)C)[C@H](O)c1ccccc1` (single isomer, unassigned) gave a 50% effective dose (ED50) of 25 mg/kg. Consider `O=C1NC(=O)C(c2ccccc2)(c2ccccc2)N1` [PHENYTOIN], for which, in the experiment on Mus musculus [1] (setting [7]), the ED50 was found to be 8.5 mg/kg. On to `C[C@H](NC(C)(C)C)[C@H](O)c1ccc(Cl)c(Cl)c1`, for which, in the experiment with Mus musculus [1] (setting [7]), the ED50 amounted to 31 mg/kg. Same read-out and setting: the figure for `CC[C@H](NC(C)(C)C)[C@H](O)c1cccc(C(F)(F)F)c1` is 40 mg/kg; for `CC(C)N[C@@H](C)[C@H](O)c1cccc(Cl)c1` it is 20 mg/kg.

For `CC(NC(C)(C)C)C(O)c1cccc(C(F)(F)F)c1` (racemic; form 1), in the experiment with Mus musculus [1], the ED50 came to 16 mg/kg.
